{"source": "patent US5063206A", "about": "“Compositions having use as treatment of neuropsychiatric deficits” (The United States of Americas as represented by the …, priority 1989, dated 1991)", "tested_on": "volunteers who tested negative for HIV antibodies", "assay": "Clinical effects observed in volunteers who tested negative for HIV antibodies", "assay_type": "in vivo, human", "description": "was given at dosage of 0.033 mg/kg/da to 0.133 mg/kg/da for seven days. As indicated in the Table, the unexpected effects observed in these volunteers who tested negative for HIV antibodies were the following: […]"}
{"substance": "D--Ala--Ser--Thr--Thr--Thr--Asn--Tyr--Thr--amide (ASTTTNYT; N-terminal D-residue; C-terminal amide; printed: Ala--Ser--Thr--Thr--Thr--Asn--Tyr--Thr--) [Peptide T]", "values": [{"measurement": "symptoms of substance abuse, childhood dyslexia and depression", "setting": "0.033 mg/kg/da to 0.133 mg/kg/da for seven days", "result": "ameliorated"}, {"measurement": "scores on memory and attention components of standard neuropsychologic tests", "setting": "0.033-0.133 mg/kg/da for seven days, effect remitted after Peptide T was discontinued", "result": "Incremental scores"}, {"measurement": "physical activity while on drug", "setting": "all subjects, did not continue after drug discontinuance", "result": "increases in physical activity"}, {"measurement": "mood scores on depression scales", "setting": "the two research volunteers who had prior histories of depression", "result": "Improved mood scores"}, {"measurement": "duration of the improved mood effect", "setting": "the two research volunteers who had prior histories of depression, follow-up", "result": "maintained for one month of follow-up"}]}
